The values below come from patent US8357406B2, “Method for preparing raw material for functional foods from barley or wheat seeds” (priority 2009, dated 2013).

Holding throughout (format): biochemical
One assay has as its target xanthine oxidase (Homo sapiens, UniProt P47989). The assay can be described thus: Inhibitory activity against xanthine oxidase (uric acid production, absorbance at 290 nm). The following applies: samples 1 mg/mL, 50 mU/ml xanthine oxidase; average±SD of three measurements. The procedure: Inhibitory activity against xanthine oxidase was evaluated by the level of the uric acid produced in the xanthine/xanthine oxidase system, which can be quantitatively analyzed by absorbance at 290 nm.
100 μL of 200 mM phosphate buffer (pH 7.5) containing 0.5 mM xanthine and 1 mM EDTA was mixed with 100 μL of the samples (1 mg/mL) to which 50 mU/ml xanthine oxidase was then added to induce the production of uric acid. The produced uric acid was quantitatively analyzed by absorbance at 290 nm.
Allopurinol, a xanthine […] inhibitor used to treat gout, was used as a positive control.

The nature of assay [1]: DPPH radical scavenging activity. The following applies: 0.4 mM DPPH, room temperature 10 min, absorbance 517 nm; average±SD of three measurements. The procedure:
For use in this assay, the samples prepared in the Examples and Comparative Examples were lyophilised and/or dried and pulverized into powders.
The samples were evaluated for DPPH radical scavenging activity according to the Brand-Williams method (Brand-Williams et al., Use of a free radical method to evaluate antioxidant activity. Food Sci. Technol. 28(1): 25-30, (1995)). The samples were added at various concentrations to 0.4 mM DPPH which was then incubated at room temperature for 10 min, followed by measuring absorbance at 517 nm.
(§1) The data are average±standard deviation of three measurements.
For the positive control, the commercially available antioxidant BHA ([…], butylated hydroxy anisole) was employed.

A short description of assay [2]: Superoxide anion radical scavenging activity (NBT reduction method, xanthine/xanthine oxidase system). As to conditions: 25 mU/mL xanthine oxidase, 0.05 mM xanthine, 0.6 mM NBT, 25° C. 20 min, absorbance 560 nm; average±SD of three measurements. The procedure: Superoxide anion radical scavenging activity was evaluated by the NBT (nitro blue tetrazolium) reduction method in which NBT is reduced by the superoxide anion radicals formed in a xanthine/xanthine oxydase system.
Along with 25 mU/mL of xanthine oxidase, the samples were added at various concentrations to 1.5 mL of a reaction solution containing 50 mM potassium phosphate buffer (pH 7.8), 0.05 mM xanthine, and 0.6 mM NBT, and incubated at 25° C. for 20 min before measuring absorbance at 560 nm.
as §1
For a positive control, the commercially available antioxidant BHA ([…], butylated hydroxy anisole) was employed.

Chain of xanthine oxidase (P47989 whole entry, species assumed): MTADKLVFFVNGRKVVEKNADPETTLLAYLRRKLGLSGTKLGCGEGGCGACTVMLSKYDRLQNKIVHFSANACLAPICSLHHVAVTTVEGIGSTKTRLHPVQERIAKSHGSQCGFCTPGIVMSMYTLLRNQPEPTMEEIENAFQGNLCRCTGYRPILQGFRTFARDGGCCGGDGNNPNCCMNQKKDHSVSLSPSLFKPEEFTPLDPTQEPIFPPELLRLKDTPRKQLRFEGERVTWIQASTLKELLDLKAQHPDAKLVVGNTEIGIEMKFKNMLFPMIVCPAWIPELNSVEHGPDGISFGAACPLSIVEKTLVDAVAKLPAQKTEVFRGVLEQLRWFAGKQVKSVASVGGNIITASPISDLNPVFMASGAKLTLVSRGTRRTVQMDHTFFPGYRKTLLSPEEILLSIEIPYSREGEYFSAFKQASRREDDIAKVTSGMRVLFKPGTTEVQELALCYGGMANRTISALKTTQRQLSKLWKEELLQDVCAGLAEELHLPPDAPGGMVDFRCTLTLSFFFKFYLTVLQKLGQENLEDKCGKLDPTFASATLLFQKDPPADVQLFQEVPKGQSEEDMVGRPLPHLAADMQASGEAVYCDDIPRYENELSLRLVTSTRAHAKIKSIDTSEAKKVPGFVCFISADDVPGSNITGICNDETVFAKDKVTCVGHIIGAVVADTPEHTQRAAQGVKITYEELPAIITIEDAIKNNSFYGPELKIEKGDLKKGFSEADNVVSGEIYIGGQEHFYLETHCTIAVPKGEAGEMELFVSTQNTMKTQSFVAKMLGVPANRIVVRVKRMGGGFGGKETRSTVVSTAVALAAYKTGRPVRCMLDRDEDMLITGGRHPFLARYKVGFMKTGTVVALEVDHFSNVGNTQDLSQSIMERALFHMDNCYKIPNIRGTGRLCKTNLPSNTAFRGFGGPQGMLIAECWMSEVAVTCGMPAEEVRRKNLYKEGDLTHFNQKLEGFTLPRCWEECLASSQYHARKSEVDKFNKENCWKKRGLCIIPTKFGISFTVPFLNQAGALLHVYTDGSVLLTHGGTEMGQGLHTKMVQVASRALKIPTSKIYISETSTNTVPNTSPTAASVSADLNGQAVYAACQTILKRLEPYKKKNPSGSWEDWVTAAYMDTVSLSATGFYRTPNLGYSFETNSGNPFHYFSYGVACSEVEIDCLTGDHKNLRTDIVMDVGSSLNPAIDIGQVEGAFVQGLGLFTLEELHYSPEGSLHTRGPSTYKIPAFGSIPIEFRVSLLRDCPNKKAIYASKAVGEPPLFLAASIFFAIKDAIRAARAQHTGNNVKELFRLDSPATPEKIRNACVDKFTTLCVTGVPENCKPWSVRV

In the case of `Oc1ncnc2[nH]ncc12` [Allopurinol], the “Xanthine oxidase Inhibition (%)” value on xanthine oxidase is recorded as 88.2 ± 2.1%.
Regarding `COc1ccc(O)c(C(C)(C)C)c1` [BHA, butylated hydroxy anisole], the “DPPH Radical Scavenging Activity IC50” value in assay [1] is 620 ± 110 µg/mL. The “Superoxide Anion Radical Scavenging Activity IC50” value in assay [2] came out at 1120 ± 240 µg/mL.
